In patent publication US20250186386A1, “METHODS OF REDUCING THE NEED FOR PERIPHERAL ARTERIAL REVASCULARIZATION IN A STATIN-TREATED SUBJECT” (AMARIN PHARMACEUTICALS IRELAND LIMITED, priority 2018, published 2025):
Read-outs that look alike come from different tables or passages of the source.

Key:
[1] = system: hypertriglyceridemic patients with cardiovascular disease or at high risk for cardiovascular disease, on statin therapy; assay type: in vivo, human
Text: The following study, also referred to as the REDUCE-IT clinical trial, was a large cardiovascular (CV) outcome trial designed to assess CV risk reduction benefit of AMR101 treatment (commercially known as VASCEPA®) versus placebo on the 5-point primary composite endpoint: CV death, non-fatal stroke, non-fatal myocardial infarction (MI), coronary revascularizations, or unstable angina requiring hospitalization.
A multi-center, prospective, randomized, double-blind, placebo-controlled, parallel-group study was performed to evaluate the effect of AMR101 (4 g per day) on cardiovascular health and mortality in hypertriglyceridemic patients with cardiovascular disease or at high risk for cardiovascular disease. The intended expanded indication of the study was treatment with AMR101 as an add-on to statin therapy to reduce the risk of cardiovascular events in patients with clinical cardiovascular disease or with multiple risk factors for cardiovascular disease.
The primary objective of this study was, in patients at LDL-C goal while on statin therapy, with established cardiovascular disease (CVD) or at high risk for CVD, and hypertriglyceridemia (e.g., fasting triglycerides (TG)≥200 mg/dL and <500 mg/dL), to evaluate the effect of AMR101 4 g daily on time from randomization to first occurrence of any component of the composite of the following major CV events: CV death; nonfatal MI; (including silent MI; electrocardiograms (ECGs) were performed annually for the detection of silent MIs); nonfatal stroke; coronary revascularization; and unstable angina determined to be caused by myocardial ischemia by invasive/non-invasive testing and requiring emergent hospitalization.
The key secondary objective of this study was to evaluate the effect of AMR101 4 g daily on the time from randomization to the first occurrence of the composite of following major CV events: CV death, nonfatal MI (including silent MI), and nonfatal stroke.
Other secondary objectives for this study were to evaluate the effect of therapy on time from randomization to the first occurrence of the following individual or composite endpoints: composite of CV death or nonfatal MI (including silent MI); fatal or nonfatal MI (including silent MI); non-elective coronary revascularization represented as the composite of emergent or urgent classifications; CV death; unstable angina determined to be caused by myocardial ischemia by invasive/non-invasive testing and requiring emergent hospitalization; fatal or nonfatal stroke; composite of total mortality, nonfatal MI (including silent MI), or nonfatal stroke; and total mortality.
Primary Efficacy Endpoint: The primary efficacy endpoint was time from randomization to the first occurrence of the composite of the following clinical events: CV death; nonfatal MI (including silent MI; ECGs were performed annually for the detection of silent MIs); nonfatal stroke; coronary revascularization; and unstable angina determined to be caused by myocardial ischemia by invasive/non-invasive testing and requiring emergent hospitalization. The first occurrence of any of these major adverse vascular events during the follow-up period of the study were included in the incidence.
Secondary Efficacy Endpoints: The key secondary efficacy endpoint was the time from randomization to the first occurrence of the composite of CV death, nonfatal MI (including silent MI), or nonfatal stroke. […]

[2] = system: Lipid, lipoprotein, and inflammatory markers (TG, non-HDL-C, LDL-C, HDL-C, Apo B, hsCRP); assay: REDUCE-IT: fasting lipid profile and biomarker assays (lipid, lipoprotein, and inflammatory markers) over time; assay type: in vivo, human
Description: Fasting Lipid Profile: The fasting lipid panel included: TG, TC, LDL-C, HDL-C, non-HDL-C, and VLDL-C. At all visits, LDL-C was calculated using the Friedewald equation. At Visit 1 and Visit 1.1 direct LDL-C were used if at the same visit TG>400 mg/dL (4.52 mmol/L). These LDL-C values were used for the evaluation of the LDL-C inclusion criterion (LDL-C qualifying measurements for randomization) and for the assessment of changes in the statin therapy when LDL-C was not at goal. […] In addition, irrespective of the TG levels, at Visit 2 (0 Months of Follow-up, baseline) and at Visit 4 (12 Months of Follow-up), LDL-C were measured by preparative ultracentrifugation. These preparative ultracentrifugation LDL-C measurements were used in the statistical analysis including the calculation of the percent change from baseline (1 year versus baseline). Hopkins LDL-C was calculated for each visit.
Biomarkers Assays: The biomarker assays included: hsCRP, Apo B and hsTnT.
The fasting lipid panel was tested at Screening (Visit 1 or Visit 1.1), Randomization visit (Visit 2; Day 0), Visit 3 (Day 120; ˜4 Months) and all other follow-up visits including the last visit. For change from baseline to 1 year preparative ultracentrifugation measurements for LDL-C were analyzed, unless this value was missing. If the LDL-C preparative ultracentrifugation values were missing, then another LDL-C value was used, with prioritization of values obtained from LDL-C Direct measurements, followed by LDL-C derived by the Friedewald calculation (only for subjects with TG<400 mg/dL), and finally LDL-C derived using the calculation published by Hopkins University investigators (Martin S S, Blaha M J, Elshazly M B, et al. Comparison of a novel method vs the Friedewald equation for estimating low-density lipoprotein cholesterol levels from the standard lipid profile. JAMA. 2013; 310:2061-8). In addition, change from baseline to day 120 in LDL-C utilizing Friedewald's and Hopkins methods was analyzed, using the arithmetic mean of LDL-C obtained at Visit 2 (Day 0) and the preceding Visit 1 (or Visit 1.1). If one of these values was missing, the single available LDL-C value was used. LDL-C according to Hopkins was calculated at each visit.
The randomization visit was considered Baseline. If a baseline value was not available from the randomization visit, then the latest screening value was used. For measurements of lipids, lipoproteins and inflammatory markers, the change and the percent change were summarized at each visit. Since these biomarkers are typically not normally distributed, the Wilcoxon rank-sum test was used for treatment comparisons of the percent change from baseline, and medians and quartiles were provided for each treatment group. The medians of the differences between the treatment groups and 95% CIs were estimated with the Hodges-Lehmann method. In addition, shift-tables were generated as appropriate.

[3] = REDUCE-IT: serious bleeding treatment-emergent adverse events (adverse events of special interest); assay type: in vivo, human; details: Safety population
Description: Adverse Events of Special Interest: Bleeding-related adverse events, glucose control (fasting blood glucose and HbA1c), and indicators of hepatic disorders (e.g., ALT or AST increases >3×ULN, total bilirubin increases of ≥2×ULN) were summarized separately and compared between treatment groups.
(§1) Analysis of Safety: All analyses of safety were conducted on the safety population, which was defined as all randomized patients. The safety assessment was based on the frequency of adverse events, physical exams, vital signs and safety laboratory tests. AEs with new onset during the study between the initiation of study drug and 30 days after the last dose of study drug for each patient was considered treatment-emergent (TEAEs). This included any AE with onset prior to initiation of study drug and increased severity after the treatment initiation.
This included overall incidence rates (regardless of severity and relationship to study drug), and incidence rates for moderate or severe adverse events. A summary of SAEs and adverse events leading to early discontinuation (for 30 days) were presented through data listings. Patients who restarted study drug were included in the summary of AEs leading to discontinuation. Safety laboratory tests and vital signs were summarized by post-treatment change from baseline for each of the parameters using descriptive statistics by treatment group. […]

[4] = REDUCE-IT: treatment-emergent adverse events of the safety population
Description: Specification of Variables and Procedures: Safety assessments included adverse events, clinical laboratory measurements (chemistry, hematology), 12-lead ECGs, vital signs (systolic and diastolic blood pressure, heart rate, respiratory rate, and body temperature), weight, waist circumference, and physical examinations as per Study Procedures in Table 1. […] All laboratory test results were evaluated by the investigator as to their clinical significance. Any observations at physical examinations or laboratory values considered by the investigator to be clinically significant were considered an adverse event.
An adverse event can therefore be any unfavorable and/or unintended sign (including an abnormal laboratory finding), symptom, or disease temporally associated with the use of an investigational medication product, whether or not related to the investigational medication product. All adverse events, including observed or volunteered problems, complaints, or symptoms, were recorded on the appropriate CRF. Each adverse event was evaluated for duration, intensity, and causal relationship with the study medication or other factors.
Serious Adverse Events: A serious adverse event (SAE) is defined as an adverse event that meets any of the following criteria: • Results in death; • Is life-threatening—The term “life-threatening” in the definition of “serious” refers to an event in which the patient was at risk of death at the time of the event. […] Important medical events that may not result in death, be life threatening, or require hospitalization were considered an SAE when, based upon appropriate medical judgment, they may have jeopardized the patient and may have required medical or surgical intervention to prevent one of the outcomes listed above.
as §1
This included overall incidence rates (regardless of severity and relationship to study drug), and incidence rates for moderate or severe adverse events. A summary of SAEs and adverse events leading to early discontinuation (for 30 days) were presented through data listings. Patients who restarted study drug were included in the summary of AEs leading to discontinuation. Safety laboratory tests and vital signs were summarized by post-treatment change from baseline for each of the parameters using descriptive statistics by treatment group. Those patients with significant laboratory abnormalities were identified in data listings. Additional safety parameters were summarized in data listings.
In addition to the treatment-emergent adverse events analyses, analyses on all AEs (serious and non-serious) and all serious AEs were performed.

CC/C=C\C/C=C\C/C=C\C/C=C\C/C=C\CCCC(=O)OCC [AMR101, icosapent ethyl]
Key secondary composite endpoint absolute between-group difference in the rate of the endpoint ([1]; 2 g twice daily vs placebo): 3.6 percentage points | Primary composite endpoint absolute between-group difference in the rate of the endpoint ([1]; 2 g twice daily vs placebo): 4.8 percentage points | Cardiovascular death, % of patients ([1]; 4 g daily, ITT): 4.3% | Total mortality, % of patients ([1]; 4 g daily, ITT): 6.7% | Amputation for PVD (%) ([1]; ITT): (0.5%) | Cardiac Arrest (%) ([1]; ITT): (0.5%) | Cardiac Arrhythmias Requiring Hospitalization of ≥24 Hours (%) ([1]; ITT): (4.6%) | Carotid Revascularization (%) ([1]; ITT): (0.8%) | Coronary Revascularization (%) ([1]; ITT): (9.2%) | Elective Revascularization (%) ([1]; ITT): (4.7%) | Emergent Revascularization (%) ([1]; ITT): (1.0%) | Hemorrhagic Stroke (%) ([1]; ITT): 0.3% | Ischemic Stroke (%) ([1]; ITT): (2.0%) | New Heart Failure (%) ([1]; ITT): 4.1% | New Heart Failure Requiring Hospitalization (%) ([1]; ITT): (3.4%) | Salvage Revascularization (%) ([1]; ITT): (0.0%) | Sudden Cardiac Death (%) ([1]; ITT): (1.5%) | Transient Ischemic Attack (%) ([1]; ITT): (1.6%) | Urgent Revascularization (%) ([1]; ITT): (4.4%) | Hemorrhagic Stroke (%) ([1]; ITT, listed as Icosapent Ethyl): (0.3%) | New Heart Failure (%) ([1]; ITT, listed as Icosapent Ethyl): (4.1%) | Atrial fibrillation or flutter requiring hospitalization (adjudicated tertiary endpoint), % of patients ([1]; human, in vivo): 3.1% | New Onset of Diabetes (%) ([1]; patients with diabetes at baseline excluded): (3.8%) | Composite of cardiovascular death or nonfatal myocardial infarction RRR ([1]; vs placebo, 4 g per day): 25% | Composite of total mortality, nonfatal myocardial infarction, or nonfatal stroke reduction (RRR) ([1]; vs placebo, 4 g per day): 23% | Key secondary composite endpoint relative risk reduction (RRR) ([1]; vs placebo, 4 g per day): 26% | Primary composite endpoint relative risk reduction (RRR) ([1]; vs placebo, 4 g per day): 25% | Reduction in heart attack ([1]; vs placebo, 4 g per day): 31% | Total mortality reduction (RRR) ([1]; vs placebo, 4 g per day): 13% | Total mortality HR ([1]; vs placebo, ITT): 0.87 | Primary composite endpoint number needed to treat (NNT) ([1]; vs placebo, median follow up 4.9 years): 21 | HDL-C Median Year 1 ([2]; Year 1, Table 18): 39.0 mg/dL | LDL-C Median Year 1 ([2]; Year 1, Table 18): 77.0 mg/dL | Non-HDL-C Median Year 1 ([2]; Year 1, Table 18): 113.0 mg/dL | Triglycerides Median Year 1 ([2]; Year 1, Table 18): 175.0 mg/dL | Triglycerides: median reduction from baseline greater than in the placebo group (Hodges-Lehmann) ([2]; baseline to one year, vs placebo): 19.7% | HDL-C Median Between Group Difference at Year 1, % Change from Baseline ([2]; vs placebo, Table 18): −6.3% | HDL-C Median Between Group Difference at Year 1, Absolute Change from Baseline ([2]; vs placebo, Table 18): -2.5 mg/dL | LDL-C Median Between Group Difference at Year 1, % Change from Baseline ([2]; vs placebo, Table 18): −6.6% | LDL-C Median Between Group Difference at Year 1, Absolute Change from Baseline ([2]; vs placebo, Table 18): -5.0 mg/dL | Non-HDL-C Median Between Group Difference at Year 1, Absolute Change from Baseline ([2]; vs placebo, Table 18): -15.5 mg/dL | Triglycerides Median Between Group Difference at Year 1, % Change from Baseline ([2]; vs placebo, Table 18): −19.7% | Triglycerides Median Between Group Difference at Year 1, Absolute Change from Baseline ([2]; vs placebo, Table 18): -44.5 mg/dL | Serious gastrointestinal bleeding, rate [3]: 1.5% | Pneumonia (serious adverse event), rate ([4]; Safety population): 2.6% | Rate of anemia (adverse event) ([4]; Safety population): 4.7% | Rate of atrial fibrillation (adverse event) ([4]; Safety population): 5.3% | Rate of diarrhea (adverse event) ([4]; Safety population): 9% | Rate of gastrointestinal adverse events ([4]; Safety population): 33.0% | Rate of peripheral edema (adverse event) ([4]; Safety population): 6.5% | Serious TEAE Leading to Death, % ([4]; […]): (2.3%) | Serious TEAE, % ([4]; […]): (30.6%) | Subjects with at Least One TEAE, % ([4]; […]): (81.8%)
